We go through 2 molecules from US20190101539A1, “METABOLOMIC BASED BIOMARKERS FOR COLON CANCER DETECTION” (UNIVERSITY OF SOUTHERN CALIFORNIA, priority 2015, published 2019).

Data set [1] in a line: Evaluation of stabilizing agents for FOCM metabolites. It is filed as physicochemical. The settings on record: 0.5% ascorbic acid, compared with other stabilizing agents. The text has this:
A major challenge with the FOCM intermediates during storage and analysis is their poor stability. The metabolites may be unstable through environment exposures such as heat, light and/or oxygen, thereby posing great challenge to determine the actual concentration of these metabolites at the time of collection. These FOCM intermediates make the metabolomics-based assay a very powerful tool to a more accurate quantification. The instability of these vitamins pose a great challenge due to their poor stability in the presence of metallic ions, oxidative species and light which catalyze most of the degradation reactions. Most of the vitamin B and folate metabolites degrade due as a consequence of photooxidation reactions which becomes a challenge for assay development necessitating the provision of the most suitable conditions for storage and processing of the plasma samples in order to produce a highly sensitive and reliable assay method. In order to address the instability issues during sample processing, the analysis will be conducted on at 4° C. using black eppendorf tubes. […] Consistent metabolites extraction is achieved using protein precipitation approach followed by the supernatant evaporated to dryness under nitrogen. […]

Data set [2] in a line: Degradation kinetics of FOCM metabolites at storage temperatures, Arrhenius model. It is filed as physicochemical. Also on record: Ln (K) / Calculated Ln (K) / Calculated K: unit not given here. The settings on record: for Degradation constant, K: first order, days 0-42. On the procedure:
This will further enhance the clinical prediction ability. The stability of these plasma vitamin B and folate metabolites were studied to validate the reliability of the assay and the time-dependent effect on the concentration of the analytes in patient samples. Using freshly made samples and assessing their degradation over time, we have established an Arrhenius models that will allow the team to extrapolate the metabolite level over time.
The stability of these metabolites were assessed using accelerated stress conditions which involves determining degradation rates of analytes through monitoring changes in time of their concentration in solution at several predetermined storage temperatures and then analyzing the results in terms of the Arrhenius equation: […]
For a valid Arrhenius model to be developed, a linear plot determining the degradation rate of analyte at given storage temperatures against reciprocals of these temperatures is needed. The pre-exponential factor A, which may be obtained by extrapolating the straight line to zero value of the temperature reciprocal, appears to be affected by factors such as exposure to pollution^7 and light^8, relative humidity during the ageing, and the analytes. The activation energy, directly proportional to the slope of the straight line, represents a measure of sensitivity of the degradation rate of the studied property to temperature changes. The degradation rate of the analytes at ambient conditions can be estimated by extrapolating the Arrhenius plot for the analyte concentration to storage temperature. Combined with a kinetic equation describing changes of the concentration with time, this rate may then be used to estimate the life-expectancy of the analytes.
In order to estimate the degradation rate constant, k, at the storage temperature of the plasma samples (which is usually −80° C.), a degradation experiment was conducted for FOCM metabolites at ambient temperatures of 37° C., 25° C., 4° C. and −20° C. […] All degradation curves were assumed to be first order. All experimental samples were stored and quantified at days 0, 3, 7, 14, 21, 28 and 42 using the developed LCMS assay. The results below (for 4-pyridoxic acid) are an example of the data obtained for each of the FOCM metabolites.

Setting [3] is: −80 °C, extrapolated from Arrhenius model.

SMILES strings stand for the structures.

As for `O=C1O[C@H]([C@@H](O)CO)C(O)=C1O` [ascorbic acid], in data set [1], the “Stabilization of FOCM metabolites from oxidation” value was “more effective in stabilizing the FOCM metabolites from oxidation”.
`Cc1ncc(CO)c(C(=O)O)c1O` [4-Pyridoxic acid]: the “Ln (K)” value in data set [2] (4 °C) was −4.164; in data set [2] (25 °C) it was −4.019; in data set [2] (37 °C), −3.841; in data set [2] (−20 °C), −4.806. The “Calculated K” value in data set [2] (4 °C, Arrhenius model) is reported as 0.014; in data set [2] (25 °C, Arrhenius model) it was 0.019; in data set [2] (37 °C, Arrhenius model) it was 0.022; in data set [2] (−20 °C, Arrhenius model), 0.009; in data set [2] (setting [3]) it was 0.002. In addition, the “Calculated Ln (K)” value in data set [2] (4 °C, Arrhenius model) is −4.302; in data set [2] (25 °C, Arrhenius model) it was −3.977; in data set [2] (37 °C, Arrhenius model), −3.810; in data set [2] (−20 °C, Arrhenius model), −4.741; in data set [2] (setting [3]), −6.313. Moreover, the “Degradation constant, K” value in data set [2] (4 °C) is reported as 0.016; in data set [2] (25 °C), 0.018; in data set [2] (37 °C) it was 0.021; in data set [2] (−20 °C), 0.008. For the same molecule, the “A, Arrhenius pre-exponential factor” value in data set [2] (Arrhenius plot) was 1.37. In addition, the “Ln(A)” value in data set [2] (Arrhenius plot intercept) was 0.3183. For the same molecule, the “E, activation energy” value in data set [2] (−slope*R of Arrhenius plot) was 10.6 KJmol^−1.
